Patent publication US20230146795A1, “ENHANCEMENT OF ANTI-TUMOR ACTIVITY OF SHP2 INHIBITOR PYRIMIDINONE IN COMBINATION WITH NOVEL CANCER MEDICINES IN CANCERS” (TAIHO PHARMACEUTICAL CO., LTD., priority 2020, published 2023)

Tested on: 97 cell lines harboring driver mutations in KRAS
Assay: In vitro cell line screening, 3D cultures (CellTiter-Glo 3D), KRAS panel
Type: cell-based, human
Conditions: sensitive = maximum inhibition greater than 50% relative to DMSO, max 3 μM Compound 1, 1 μM Compound 9, 120-hour incubation
Procedure: The effect of Compound 1 in combination with an ERK inhibitor, Compound 9, on 97 cell lines harboring driver mutations in KRAS (G12A, G12C, G12F, G12R, G12S, G12V, G13C, G13D, A59G, Q61H, Q61K, Q61L or A146T) was assessed using the following technique. Cells from human cancer cells lines (from commercial sources such as ATCC or ECCAC) were grown as 3D cultures by seeding cells into round-bottom ultra-low attachment 96-well tissue culture plates (Corning) followed by centrifugation. Cells were allowed to recover for 16-24 hours prior to compound treatment. Compounds or dimethyl sulfoxide (DMSO) were added at various combinations of compound concentrations in a final DMSO concentration of up to 0.5% (v/v). Following a total of 120-hour incubation, CellTiter-Glo 3D Reagent(registered trademark) (Promega) was added. Plates were incubated for 10 minutes with gentle shaking at room temperature to lyse the cells, then incubated for further 40 minutes at room temperature to stabilize luminescence signal. After mixing, the mixture was transferred to a fresh plate and luminescence was determined on EnVision plate reader (Perkin Elmer).
For both 3D and 2D assays, the combination was tested as matrix of various concentrations of Compound 1 and Compound 9. The maximum concentrations of Compound 1 and Compound 9 used were 3 μM and 1 μM, respectively. Signals were normalized to that of the average of the DMSO control wells. […] For each cell line, the maximum % inhibition values were obtained for Compound 1 alone, Compound 9 alone and the combination of both compounds. The degree of drug interaction (i.e. synergy, additivity or antagonism) was quantified for each cell line by the Bliss independence model using the Synergyfinder R package (Ref: He L. et al. (2018) Methods for High-throughput Drug Combination Screening and Synergy Scoring. In: von Stechow L. (eds) Cancer Systems Biology. Methods in Molecular Biology, vol 1711. Humana Press, New York, N.Y.). For each cell line, a single score metric, the sum of synergy and antagonism across screened drug concentrations (SUM_SYN_ANT) (Ref: Di Veroli G. Y. et al (2016) Bioinformatics 32(18):2866-2868), was calculated. Synergy was defined as a score of 21 or above.

Cn1nc2ccc(-c3c[nH]c4nc(N5[C@H]6CC[C@@H]5[C@H](N)C6)n(C)c(=O)c34)c(Cl)c2c1Cl [Compound 1, 2-((1R,2R,4S)-2-amino-7-azabicyclo[2.2.1]heptan-7-yl)-5-(3,4-dichloro-2-methyl-2H-indazol-5-yl)-3-methyl-3,7-dihydro-4H-pyrrolo[2,3-d]pyrimidin-4-one]
Number of cell lines sensitive: 38 | Number of cell lines sensitive (% of total): (39.2) %
